Read-outs that look alike come from different tables or passages of the source.
How the values were obtained:
[1] = Lewis acidity measuring method (1): reaction rate constant of reaction between CoTPP and oxygen in the presence of a Lewis acid; type: physicochemical
UM-UC-3 cells [2] = settings: 500 ppm NaClO2 for 120 minutes, then 24 hours culture; vs PBS group
UM-UC-3 cells [3] = system: UM-UC-3 cells
colon cancer cells HT116 = settings: 60 minutes incubation, 48 hours culture
[4] = system: pancreatic cancer cells PK10; settings: 48 hours
UM-UC-3 cells [5] = settings: 500 ppm NaClO2 for 120 minutes
[6] = system: pancreatic cancer cells PK05; settings: 48 hours
colon cancer cells HT29 = settings: 60 minutes incubation, 48 hours culture
[7] = system: oral cancer cells HO-1-u-1; settings: 60 minutes incubation, 48 hours culture
UM-UC-3 cells [8] = settings: 500 ppm NaClO2 for 120 minutes, then 24 hours culture; PBS Control 14.6%
[9] = system: tongue cancer cells HSC-3; settings: 60 minutes incubation, 48 hours culture
UM-UC-3 cells [10] = system: UM-UC-3 cells; remark: listed apart in the source
[11] = system: bladder cancer clinical specimen-derived tumor
[12] = system: various bladder cancer cells (UM-UC-3, UM-UC-2, EJ-1, BOY-12E, 5637); settings: 120 minutes incubation
[13] = concentration of 31 ppm or more

Compound: CCCC[N+](CCCC)(CCCC)CCCC.F[P-](F)(F)(F)(F)F [tetrabutylammonium hexafluorophosphate]
- kcat (reaction rate constant of reaction between CoTPP and oxygen in the presence of a Lewis acid) [1]: >0.1 M^−2 s^−1

Compound: benzalkonium chloride
- kcat (reaction rate constant of reaction between CoTPP and oxygen in the presence of a Lewis acid) ([1]; acetonitrile, saturated O2, room temperature): 0.18 M^−2 s^−1

Compound: sodium chlorite [NaClO2]
- fraction ratio in subG1 phase (UM-UC-3 cells [2]): significantly increased
- reactive oxygen species detected, compared with MA-T (UM-UC-3 cells [3]; 100 ppm NaClO2 (A100) vs 100 ppm NaClO2 + 100 ppm benzethonium chloride): equivalent to or more than that with MA-T
- reactive oxygen production (fluorescence plate reader) (UM-UC-3 cells [3]; 500 ppm NaClO2 alone): remarkable reactive oxygen production
- fluorescence of active oxygen in cells (fluorescence microscopy) (UM-UC-3 cells [3]; 500 ppm NaClO2 alone, final concentration): remarkable active oxygen production
- production of reactive oxygen species on contact with cells (fluorescence intensity) (UM-UC-3 cells [3]; over time): produced reactive acid species in a time-dependent manner
- viability / proliferation of cancer cells (colon cancer cells HT116): effect of inhibiting proliferation of cancer cells
- proliferation inhibitory effect vs concentration (viability) ([4]; 0-500 ppm): concentration-dependent proliferation inhibitory effect
- pancreatic cancer cell proliferation [4, 13]: almost completely inhibited
- cell morphology (UM-UC-3 cells [5]; 0 hours after removal): morphological changes
- cell morphology (UM-UC-3 cells [5]; 24 hours after removal): regression of cells
- vesicle considered to be an apoptotic vesicle (UM-UC-3 cells [5]; 24 hours after removal, magnified photomicrograph): formation of a vesicle
- proliferation inhibitory effect vs concentration (viability) ([6]; 0-500 ppm): concentration-dependent proliferation inhibitory effect
- pancreatic cancer cell proliferation [6, 13]: almost completely inhibited
- viability / proliferation of cancer cells (colon cancer cells HT29): effect of inhibiting proliferation of cancer cells
- viability / proliferation of cancer cells [7]: effect of inhibiting proliferation of cancer cells
- apoptotic rate of UM-UC-3 cells (UM-UC-3 cells [8]): 43.8%
- viability / proliferation of cancer cells [9]: effect of inhibiting proliferation of cancer cells
- cell proliferation vs contact time (UM-UC-3 cells [10]; 500 ppm NaClO2, 30, 60, 90, 120 minutes): inhibited in a time-dependent manner
- inhibition of cell proliferation (UM-UC-3 cells [10]; 500 ppm NaClO2, 120 minutes incubation, then 48 hours culture): more than 60%
- excised tumor photograph and tumor weight ([11]; tumor immersed in 500 ppm NaClO2, excised on day 27): increase in bladder tumors was inhibited
- proliferation of bladder cancer tumors (tumor volume) ([11]; tumor immersed in 500 ppm NaClO2 for 120 minutes before transplantation, measured from day 12): significantly inhibited
- proliferation inhibition vs concentration ([12]; then 48 hours culture): concentration-dependent proliferation inhibition
- bladder cancer proliferation ([12]; at 500 ppm or more): almost completely inhibited

Reference: US20230181628A1 (priority 2020, published 2023)
